This note sets out measurements from patent US7449292B2, “Methods for predicting relative efficacy of a beta blocker therapy based on a B1-adrenergic receptor polymorphism” (University of Cincinnati, priority 2003, dated 2008).

In the assay the test system is cardiac β1-AR (position 389 genotype). The assay is classed as in vivo, human. To be noted: Gly389/Arg389 heterozygous heart failure patients; difference before vs after >6 months on a stable dose. The method, then: The study was approved by the University of Cincinnati Institutional Review Board and the patients gave informed consent. […] LVEF was determined by radionuclide ventriculography before initiation of drug treatment and after a maintenance period of >6 months on a stable dose. The change in LVEF was reported as the difference between values before and after drug treatment.

In the case of `COc1ccccc1OCCNCC(O)COc1cccc2[nH]c3ccccc3c12` (stereo not shown) [carvedilol], the “improvement in LVEF” value is listed as “improvement similar to that of Arg389-homozygous patients”.
